Measurements published in patent publication US20260317320A1, “C5AR1 ANTAGONISTS AND USES THEREOF” (Vanqua Bio, Inc., priority 2022, published 2026).
Read-outs that look alike come from different tables or passages of the source.

How the values were obtained:
[1] = target: T1, complement C5a receptor 1 (C5aR1) (Homo sapiens, UniProt P21730); experiment: β-arrestin recruitment via C5aR1 activation in live CHO-K1 cells (PathHunter), antagonist mode; type: cell-based; conditions: antagonist mode; recombinant hC5a (EC90) as competing natural agonist; live CHO-K1 cells; read-out: [Antagonist] B-arrestin2 recruitment: Average IC50
T1 construct: β-galactosidase fragment (PathHunter enzyme complementation); host or cells: CHO-K1 (PathHunter CHO-K1 C5aR1 β-arrestin cell line)
T1 sequence (P21730 1-350): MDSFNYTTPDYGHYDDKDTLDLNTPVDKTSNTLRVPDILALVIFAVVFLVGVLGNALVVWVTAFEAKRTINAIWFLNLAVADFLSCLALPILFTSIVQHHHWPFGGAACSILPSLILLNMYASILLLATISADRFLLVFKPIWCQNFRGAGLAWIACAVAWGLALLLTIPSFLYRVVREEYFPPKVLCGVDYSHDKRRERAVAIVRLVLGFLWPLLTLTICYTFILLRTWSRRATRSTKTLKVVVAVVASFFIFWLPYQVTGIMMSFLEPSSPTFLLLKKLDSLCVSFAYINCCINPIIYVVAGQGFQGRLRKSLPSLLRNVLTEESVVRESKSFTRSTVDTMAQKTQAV
Summary of the method: (§1)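 β-arrestin recruitment to C5aR1 in CHO-K1 cells is detected by enzyme-fragment complementation. Antagonism is measured against recombinant hC5a at its EC90; agonism is measured with compound alone. Potencies are grouped into IC50 categories.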

[2] = target: T1, complement C5a receptor 1 (C5aR1); experiment: β-arrestin recruitment via C5aR1 activation in live CHO-K1 cells (PathHunter), agonist mode; type: cell-based
Summary of the method: as §1

Compound | IC50 [1] [nM] | [Agonist] B-arrestin2 recruitment: Average EC50 (nM) [2] | [Agonist] B-arrestin2 recruitment: Average EC50 (nM) ([2]; at 10 μM)
Cc1nccnc1Cn1c(=O)c(C2CCN(c3c(F)cccc3C(F)(F)F)CC2)cc2nccnc21 [compound 126, 7-(1-(2-Fluoro-6-(trifluoromethyl)phenyl)piperidin-4-yl)-5-((3-methylpyrazin-2-yl)methyl)pyrido[2,3-b]pyrazin-6(5H)-one] | 500 to 5000 | Non-Active | –
Cc1ncc(F)cc1N1CCC(c2cc3nccnc3n(Cc3ncccc3C(F)(F)F)c2=O)CC1 [compound 44, 7-(1-(5-Fluoro-2-methylpyridin-3-yl)piperidin-4-yl)-5-((3-(trifluoromethyl)pyridin-2-yl)methyl)pyrido[2,3-b]pyrazin-6(5H)-one] | > 100000 | Non-Active | –
Cc1cccc(F)c1N1CCC(c2cc3nccnc3n([C@H]3CCCc4ncccc43)c2=O)CC1 [49b, (S)-7-(1-(2-Fluoro-6-methylphenyl)piperidin-4-yl)-5-(5,6,7,8-tetrahydroquinolin-5-yl)pyrido[2,3-b]pyrazin-6(5H)-one] | 500 to 5000 | Non-Active | –
Cc1ccc2cc([C@H]3CC[C@H](c4c(F)cccc4F)CC3)c(=O)n(Cc3ncccc3C(F)(F)F)c2n1 [compound 223, 3-((1r,4r)-4-(2,6-Difluorophenyl)cyclohexyl)-7-methyl-1-((3-(trifluoromethyl)pyridin-2-yl)methyl)-1,8-naphthyridin-2(1H)-one] | < 500 | – | Non-Active at 10 μM
Cc1cnc2cc([C@H]3CC[C@H](c4c(F)cccc4C(F)(F)F)CC3)c(=O)n(Cc3ncccc3OC(F)(F)F)c2n1 [compound 216, 7-((1r,4r)-4-(2-Fluoro-6-(trifluoromethyl)phenyl)cyclohexyl)-3-methyl-5-((3-(trifluoromethoxy)pyridin-2-yl)methyl)pyrido[2,3-b]pyrazin-6(5H)-one] | 500 to 5000 | – | Non-Active at 10 μM
Cc1cnc2cc([C@H]3CC[C@H](c4c(F)cccc4F)CC3)c(=O)n(Cc3ncccc3CC(F)(F)F)c2n1 [compound 236, 7-((1r,4r)-4-(2,6-Difluorophenyl)cyclohexyl)-3-methyl-5-((3-(2,2,2-trifluoroethyl)pyridin-2-yl)methyl)pyrido[2,3-b]pyrazin-6(5H)-one] | < 500 | – | Non-Active at 10 μM
Cc1cnc2cc([C@H]3CC[C@H](c4cnccc4C(F)F)CC3)c(=O)n(Cc3ncccc3C(F)(F)F)c2n1 [compound 178, 7-((1r,4r)-4-(4-(Difluoromethyl)pyridin-3-yl)cyclohexyl)-3-methyl-5-((3-(trifluoromethyl)pyridin-2-yl)methyl)pyrido[2,3-b]pyrazin-6(5H)-one] | < 500 | Non-Active | –
Cc1cnc2cc([C@H]3CC[C@H](c4c(C)ccnc4F)CC3)c(=O)n(Cc3nccnc3C(F)(F)F)c2n1 [143A, 7-((1r,4r)-4-(2-Fluoro-4-methylpyridin-3-yl)cyclohexyl)-3-methyl-5-((3-(trifluoromethyl)pyrazin-2-yl)methyl)pyrido[2,3-b]pyrazin-6(5H)-one] | < 500 | Non-Active | –
Cc1cccc(F)c1N1CCC(c2cc3nccnc3n(Cc3nccnc3OC(F)F)c2=O)CC1 [compound 155, 5-((3-(Difluoromethoxy)pyrazin-2-yl)methyl)-7-(1-(2-fluoro-6-methylphenyl)piperidin-4-yl)pyrido[2,3-b]pyrazin-6(5H)-one] | < 500 | – | Non-Active at 10 μM
Cc1cccc(F)c1N1CCN(c2c(C)c3nccnc3n(Cc3ncccc3C(F)(F)F)c2=O)CC1 [compound 88, 7-(4-(2-Fluoro-6-methylphenyl)piperazin-1-yl)-8-methyl-5-((3-(trifluoromethyl)pyridin-2-yl)methyl)pyrido[2,3-b]pyrazin-6(5H)-one] | < 500 | Non-Active | –
Cc1cnc2cc([C@H]3CC[C@H](c4c(F)cccc4F)CC3)c(=O)n(Cc3ncccc3OC(F)(F)F)c2n1 [compound 209, 7-((1r,4r)-4-(2,6-Difluorophenyl)cyclohexyl)-3-methyl-5-((3-(trifluoromethoxy)pyridin-2-yl)methyl)pyrido[2,3-b]pyrazin-6(5H)-one] | < 500 | – | Non-Active at 10 μM
Cc1ccc2cc([C@H]3CC[C@H](c4c(C)ccnc4F)CC3)c(=O)n(Cc3ncccc3C(C)(F)F)c2n1 [compound 258, 1-((3-(1,1-difluoroethyl)pyridin-2-yl)methyl)-3-((1r,4r)-4-(2-fluoro-4-methylpyridin-3-yl)cyclohexyl)-7-methyl-1,8-naphthyridin-2(1H)-one] | < 500 | Non-Active | –
Cc1ccnc(F)c1N1CCC(c2c(C)c3nccnc3n(Cc3ncccc3C(F)(F)F)c2=O)CC1 [compound 62, 7-(1-(2-Fluoro-4-methylpyridin-3-yl)piperidin-4-yl)-8-methyl-5-((3-(trifluoromethyl)pyridin-2-yl)methyl)pyrido[2,3-b]pyrazin-6(5H)-one] | 500 to 5000 | Non-Active | –
Cc1cccc(F)c1N1CCC(c2cc3nccnc3n(Cc3nccnc3OCC(F)(F)F)c2=O)CC1 [compound 6, 7-(1-(2-Fluoro-6-methylphenyl)piperidin-4-yl)-5-((3-(2,2,2-trifluoroethoxy)pyrazin-2-yl)methyl)pyrido[2,3-b]pyrazin-6(5H)-one] | < 500 | Non-Active | –
COc1nccc(C)c1[C@H]1CC[C@H](c2cc3ncc(C)nc3n(Cc3ncccc3C(F)(F)F)c2=O)CC1 [compound 230, 7-((1r,4r)-4-(2-Methoxy-4-methylpyridin-3-yl)cyclohexyl)-3-methyl-5-((3-(trifluoromethyl)pyridine-2-yl)methyl)pyrido[2,3-b]pyrazin-6(5H)-one] | < 500 | – | Non-Active at 10 μM
Cc1cnc2cc(C3CCN(c4c(C)ccc5c4cnn5C)CC3)c(=O)n(Cc3ncccc3C(F)(F)F)c2n1 [compound 185, 7-(1-(1,5-Dimethyl-1H-indazol-4-yl)piperidin-4-yl)-3-methyl-5-((3-(trifluoromethyl)pyridin-2-yl)methyl)pyrido[2,3-b]pyrazin-6(5H)-one] | 500 to 5000 | – | Non-Active at 10 μM

Now from value to molecule:

IC50 [1] [nM] | [Agonist] B-arrestin2 recruitment: Average EC50 (nM) [2] | [Agonist] B-arrestin2 recruitment: Average EC50 (nM) ([2]; at 10 μM) | Compound
< 500 | Non-Active | – | Cc1cccc(F)c1N1CCC(c2cc3nccnc3n(Cc3ncccc3OC(F)(F)F)c2=O)CC1 [compound 87, 7-(1-(2-Fluoro-6-methylphenyl)piperidin-4-yl)-5-((3-(trifluoromethoxy)pyridin-2-yl)methyl)pyrido[2,3-b]pyrazin-6(5H)-one]
< 500 | – | Non-Active at 10 μM | Cc1ccc2cc([C@H]3CC[C@H](c4cnccc4C(F)(F)F)CC3)c(=O)n(Cc3ncccc3C(F)(F)F)c2n1 [compound 251, 7-Methyl-1-((3-(trifluoromethyl)pyridin-2-yl)methyl)-3-((1r,4r)-4-(4-(trifluoromethyl)pyridin-3-yl)cyclohexyl)-1,8-naphthyridin-2(1H)-one]
< 500 | – | Non-Active at 10 μM | Cc1cnc2cc([C@H]3CC[C@@H](c4c(C)cccc4F)C3)c(=O)n(Cc3ncccc3C(F)(F)F)c2n1 [171A, 7-((1S,3R)-3-(2-Fluoro-6-methylphenyl)cyclopentyl)-3-methyl-5-((3-(trifluoromethyl)pyridin-2-yl)methyl)pyrido[2,3-b]pyrazin-6(5H)-one]
< 500 | – | Non-Active at 10 μM | Cc1cnc2cc([C@H]3CC[C@H](c4c(C)cccc4F)CC3)c(=O)n(Cc3ncccc3OC(F)F)c2n1 [compound 212, 5-((3-(Difluoromethoxy)pyridin-2-yl)methyl)-7-((1r,4r)-4-(2-fluoro-6-methylphenyl)cyclohexyl)-3-methylpyrido[2,3-b]pyrazin-6(5H)-one]
< 500 | Non-Active | – | Cc1cccc(F)c1N1CCC(c2cc3nccnc3n(Cc3ncccc3C(F)(F)F)c2=O)CC1 [compound 21, 7-(1-(2-Fluoro-6-methylphenyl)piperidin-4-yl)-5-((3-(trifluoromethyl)pyridin-2-yl)methyl)pyrido[2,3-b]pyrazin-6(5H)-one]
< 500 | – | Non-Active at 10 μM | Cc1cnc2cc([C@H]3CC[C@H](c4cnccc4C(C)(F)F)CC3)c(=O)n(Cc3ncccc3C(F)(F)F)c2n1 [compound 188, 7-((1r,4r)-4-(4-(1,1-Difluoroethyl)pyridin-3-yl)cyclohexyl)-3-methyl-5-((3-(trifluoromethyl)pyridin-2-yl)methyl)pyrido[2,3-b]pyrazin-6(5H)-one]
< 500 | – | Non-Active at 10 μM | Cc1cnc2cc([C@H]3CC[C@@H](c4cnccc4C(F)(F)F)CC3)c(=O)n(Cc3ncccc3C(F)(F)F)c2n1 [150A, 3-Methyl-5-((3-(trifluoromethyl)pyridin-2-yl)methyl)-7-((1s,4s)-4-(4-(trifluoromethyl)pyridin-3-yl)cyclohexyl)pyrido[2,3-b]pyrazin-6(5H)-one]
